# Reference: patent EP1082333B1, “THIOCO[…], PREPARATION AND THERAPEUTIC APPLICATION” (SANOFI-SYNTHELABO, priority 1998, dated 1999)
# System: réflexe polysynaptique
# Experiment: Inhibition of the polysynaptic reflex in the normal rat (RPRN), EMG of biceps femoris
# Format: in vivo
# Details: 10 mg/kg, voie i.p
# Excerpt: L'activité décontraccurante du composé de l'invention a été déterminée par l'inhibition du réflexe polysynaptique chez le rat normal (RPRN). L'animal est placé en contention en décubitus ventral. Les membres postérieurs sont immobilisés. Les réflexes polysynaptiques sont évoqués dans le muscle Biceps fémoral (fléchisseur de la cuisse) par stimulation électrique de la voûte plantaire (territoire cutané du nerf sural). L'EMG (Electro-Myo-Graphie) est recueilli par deux électrodes en acier inoxydable insérées dans le muscle parallélement aux fibres.
# Les électrodes de stimulation en acier inoxydable sont insérées en position sous-cutanée. La stimulation consiste en un choc électrique carré de 0.2-0.4 ms de durée et de 0.2 Hz de fréquence. L'intensité de la stimulation est réglée pour obtenir des réflexes bien constitués et de surface stable (8-12 mA).
# L'EMG est amplifié. La surface de chaque réflexe est mesurée.
# Des séries de 20 réflexes sont enregistrées toutes les 15 minutes. La surface des 20 réflexes de chaque série est moyennée.
# Après plusieurs séries contrôles, le produit à étudier est administré. La moyenne des 20 premières réponses contrôles est prise pour 100 %. L'évolution des réponses EMG est suivie alors pendant 2 ou 3 heures.
structure (smiles),measurement,value
COc1c(OC2OC(C(=O)O)C(O)C(O)C2O)cc2c(c1OC)-c1ccc(SC)c(=O)cc1C(NC(C)=O)CC2 (stereo not shown) [composé de l'invention],inhibe le réflexe polysynaptique,78%
